Laboratory results reported in patent US4011238A, “2-Imidazolidione derivatives” (Gruppo Lepetit S.p.A., priority 1972, dated 1977).
Where two headings read alike, the source gives them in different places.

Key:
[1] = acute toxicity (LD50), rat i.p.; conditions: in vivo, ip
conditioned behavior = test: conditioned behavior; type: in vivo, rat; conditions: in comparison with chlorpromazine, in words
Experimental: (§1) The symbols CR and CR2 relate, respectively, to the tests of inhibition of the primary and secondary conditioned response according to the method of L. Cook et al., Ann. […] The inhibition of apomorphine emesis test in the dog is carried out according to the method of G. Chen. et al., J. Pharm. Exptl.

[2] = system: secondary conditioned response; test: CR2: inhibition of the secondary conditioned response; type: in vivo, rat; conditions: ip, read-out: CR2 (ED50)
Experimental: as §1

[3] = system: primary conditioned response; test: CR: inhibition of the primary conditioned response; type: in vivo, rat; conditions: ip, read-out: CR (ED50)
Experimental: as §1

Apomorphine emesis = test: inhibition of apomorphine emesis test in the dog; type: in vivo; conditions: for ED50: Canis lupus familiaris, ip, read-out: Apomorphine emesis (ED50)
Experimental: as §1

cardiovascular system = test: side effects on the cardiovascular system; type: in vivo; conditions: in comparison with chlorpromazine; at a dose level 5 to 10 times higher than that of chlorpromazine
[4] = rat, i.p., secondary conditioned response
[5] = rat, i.p., primary conditioned response

Compound | LD50 [1] | activity on the conditioned behavior (conditioned behavior) | ED50 [2, 4] | ED50 [3, 5] | ED50 (Apomorphine emesis; dog, i.p.) | anti-emetic effect (Apomorphine emesis; in comparison with chlorpromazine, in words) | side effects on the cardiovascular system (cardiovascular system) | ED50 ([2]; Rattus norvegicus) | ED50 ([3]; Rattus norvegicus) | ED50 (Apomorphine emesis)
CC1(C)CN(CCN2CCN(c3cccc(Cl)c3)C2=O)C1 [A, 1-(m-chlorophenyl)-3-[2-(3,3-dimethylazetidin-1-yl)ethyl]-2-imidazolidinone] | 200 mg/kg | more specific activity on the conditioned behavior | 0.25 mg/kg | 0.5 mg/kg | < 0.05 mg/kg | more potent anti-emetic effect | much lower side effects on the cardiovascular system | – | – | –
CN(C)CCCN1c2ccccc2Sc2ccc(Cl)cc21 [CPZ, chlorpromazine] | 120 mg/kg | – | – | – | – | – | – | 0.96 mg/kg | 3.95 mg/kg | 1 mg/kg
CN(C)CCN1CCN(c2cccc(Cl)c2)C1=O [Imidoline, 1-(m-chlorophenyl)-3-(2-dimethylaminoethyl)-2-imidazolidinone] | 200 mg/kg | – | 2.5 mg/kg | 5 to 10 mg/kg | 0.25 mg/kg | – | – | – | – | –
